According to the supplement of paper PMC10307832:

What was measured:
Experiment in all cases: relative viability (nuclei count vs DMSO), 5 days (fraction); higher = more cells survive
[1] = compound: CC(=O)Nc1cccc(-n2c(=O)n(C3CC3)c(=O)c3c(Nc4ccc(I)cc4F)n(C)c(=O)c(C)c32)c1 [Trametinib] + O=C(CCCCCCC(=O)Nc1ccccc1)NO [Vorinostat] (partner 1 µM)
Method in brief: (§1)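 Relative viability divides the nuclei count in treated wells by that in vehicle wells. Lung cancer cell lines were seeded in 1536-well plates, dosed by pin tool the next day, and fixed and stained after 5 days in one step with final 0.05% Triton X-100, 1% formaldehyde and 1 ug/ml Hoechst. Dosing was a single drug or a fixed anchor-drug dose plus five library-drug doses (not always all listed) in √10 steps, and values are medians of duplicate plates imaged at 4×.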

[2] = compound: CN1C=C(C2=CC=CC=C21)/C=C\3/C4=C(C=CC=N4)NC3=O + Nc1nc2[nH]cc(CCc3ccc(C(=O)N[C@@H](CCC(=O)O)C(=O)O)cc3)c2c(=O)[nH]1 [Pemetrexed] (partner 0.2 µM)
Method in brief: as §1

[3] = compound: CC(=O)Nc1cccc(-n2c(=O)n(C3CC3)c(=O)c3c(Nc4ccc(I)cc4F)n(C)c(=O)c(C)c32)c1 [Trametinib] + CCNC(=O)c1noc(-c2cc(C(C)C)c(O)cc2O)c1-c1ccc(CN2CCOCC2)cc1 [Luminespib] (partner 0.01 µM)
Method in brief: as §1

[4] = compound: CN1C=C(C2=CC=CC=C21)/C=C\3/C4=C(C=CC=N4)NC3=O
Method in brief: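 Five library-drug doses, separated by factors of √10, were pinned into 1536-well plates holding lung cancer cell lines after an overnight stay at 37 °C. Cells were fixed, permeabilised and Hoechst-stained in one step after 5 days without medium change, then imaged at 4×. Viability compares treated-well with vehicle-well nuclei, counted in MetaXpress, as a median across plates. Passing plates had control CV below 25% and at least one doubling.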

Row | Cell Line | relative viability ([1]; first compound 0.0025 µM) | relative viability ([1]; first compound 0.007906 µM) | relative viability ([1]; first compound 0.025 µM) | relative viability ([1]; first compound 0.07906 µM) | relative viability ([1]; first compound 0.25 µM) | relative viability ([2]; first compound 0.02 µM) | relative viability ([2]; first compound 0.06325 µM) | relative viability ([2]; first compound 0.2 µM) | relative viability ([2]; first compound 0.6325 µM) | relative viability ([2]; first compound 2 µM) | relative viability ([3]; first compound 0.0025 µM) | relative viability ([3]; first compound 0.007906 µM) | relative viability ([3]; first compound 0.025 µM) | relative viability ([3]; first compound 0.07906 µM) | relative viability ([3]; first compound 0.25 µM) | relative viability ([4]; 0.02 µM) | relative viability ([4]; 0.06325 µM) | relative viability ([4]; 0.2 µM) | relative viability ([4]; 0.6325 µM) | relative viability ([4]; 2 µM)
1 | HCC-44 | 1.08 | 1.06 | 1.09 | 0.909 | 0.808 | 0.58 | 0.613 | 0.664 | 0.648 | 0.636 | 1.03 | 0.907 | 0.931 | 0.553 | 0.193 | 0.902 | 0.906 | 0.87 | 0.991 | 0.935
2 | A-427 | 0.948 | 0.896 | 0.723 | 0.501 | 0.51 | 0.981 | 0.973 | – | 0.94 | 0.983 | 0.805 | 0.871 | 0.691 | 0.661 | 0.297 | 1.06 | 0.955 | – | 1.04 | 1.03
3 | NCI-H596 | 0.6 | 0.555 | 0.436 | 0.427 | 0.263 | 0.494 | 0.494 | 0.527 | 0.456 | 0.531 | 0.901 | 0.775 | 0.65 | 0.727 | 0.523 | 0.985 | 0.998 | 0.791 | 0.982 | 0.993
4 | RERF-LC-KJ | 0.549 | 0.621 | 0.6 | 0.569 | 0.472 | 0.436 | 0.482 | 0.493 | 0.475 | 0.471 | 1.21 | 1.19 | 1.14 | 1.09 | 0.736 | 1 | 1.01 | 1.02 | 0.914 | 0.984
5 | NCI-H647 | 0.634 | 0.562 | 0.642 | 0.465 | 0.196 | 0.122 | 0.173 | 0.153 | 0.167 | 0.175 | 0.183 | 0.12 | 0.324 | 0.209 | 0.102 | 0.946 | 0.863 | 0.656 | 0.784 | 0.827
6 | NCI-H1734 | 0.812 | 0.802 | – | 0.747 | 0.356 | 0.348 | 0.4 | – | 0.425 | 0.418 | 0.208 | 0.169 | 0.173 | 0.149 | 0.15 | 0.971 | 0.939 | – | 1.05 | 1.06
7 | SK-LU-1 | 0.753 | 0.748 | 0.657 | 0.52 | 0.381 | 0.736 | 0.919 | 0.898 | 1.03 | 0.946 | 0.216 | 0.187 | 0.176 | 0.17 | 0.159 | 0.793 | 0.928 | 0.984 | 0.945 | 1.08
8 | NCI-H1395 | 0.78 | 0.627 | 0.593 | 0.415 | 0.384 | 0.82 | 0.739 | 0.707 | 0.845 | 0.815 | 0.616 | 0.703 | 0.691 | 0.775 | 0.403 | 0.818 | 0.894 | 0.632 | 0.878 | 0.785
9 | COR-L23 | 0.463 | 0.465 | 0.529 | 0.421 | 0.312 | 0.197 | 0.189 | 0.209 | 0.18 | 0.19 | 0.638 | 0.462 | 0.306 | 0.248 | 0.236 | 0.992 | 0.994 | 1.09 | 1.12 | 1
10 | EMC-BAC-2 | 0.742 | 0.602 | 0.448 | – | 0.326 | 0.407 | 0.438 | 0.442 | 0.465 | 0.421 | 1.18 | 1.04 | 1.04 | 0.95 | 0.684 | 1.1 | 0.92 | 0.89 | 0.798 | 0.673
11 | NCI-H1355 | 0.605 | 0.524 | 0.341 | 0.377 | 0.291 | 0.885 | 0.924 | 0.99 | 0.916 | 0.851 | 0.486 | 0.605 | 0.323 | 0.35 | 0.3 | 0.933 | 0.888 | 0.899 | 0.692 | 0.824
12 | NCI-H1944 | 0.556 | 0.387 | 0.382 | 0.348 | 0.28 | 0.549 | 0.558 | – | 0.617 | 0.652 | 0.624 | 0.489 | 0.429 | 0.377 | 0.22 | 0.903 | 0.948 | – | 0.989 | 0.936
13 | HOP-62 | 0.648 | 0.467 | 0.277 | 0.301 | 0.106 | 0.285 | 0.299 | – | 0.357 | 0.366 | 0.933 | 0.754 | 0.533 | 0.361 | 0.173 | 0.992 | 1.03 | 0.805 | 1.02 | 0.938
14 | NCI-H2009 | 0.76 | 0.634 | 0.341 | 0.354 | 0.336 | 1.02 | 0.947 | 1.06 | 1.02 | 1.02 | 1.03 | 0.623 | 0.406 | 0.26 | 0.315 | 0.975 | 0.994 | 1.02 | 1.05 | 1.05
